Consider 1 compound from patent US20260000794A1, “IN VIVO TRANSITION METAL DETECTION” (The University of Sydney, priority 2022, published 2026).

SMILES strings stand for the structures. “Also recorded” adds a separate entry of the source.

One data set deals with SWISS mice. The data set is described as follows: DIVE microscopy of fluorescent emission in CuATSM-treated vs untreated mice after F—NpCul injection (FIG. 5, FIG. 6). It counts as in vivo, mouse. The note with it: 4 mg/kg F—NpCul i.v. tail vein, CuATSM 15 mg/kg orally daily for eight days. How it is done:
(§1) In this work, anaesthetised SWISS mice underwent a craniotomy surgery to expose a region of parietal cortex. Imaging was performed through this cranial window with a water dipping objective lens. 4 mg/kg F—NpCul was i.v. injected through the tail vein after three minutes. F—NpCul was excited at 920 nm and emission was 504-577nm. “Treated” mice (n=3) were orally administered the copper-delivery compound CuATSM (15 mg/kg) daily for eight days to increase brain copper levels prior to imaging while control mice (n=3, “Untreated”) received no treatment. For each mouse at all time points, fluorescent emission per unit area (arbitrary units) from five representative regions of interest (ROIs) within vasculature and five ROIs in surrounding tissue was quantified from a projected image combining 130 μm depth. Baseline fluorescence from an image acquired prior to probe injection was subtracted from all fluorescent measurements which were then averaged at each time point. Comparison of average fluorescent emission intensity between control and CuATSM-treated mice was undertaken for a) brain tissue and b) vasculature. Unpaired t-tests with significance p<0.05 were performed to describe the temporal pattern of change. Error bars show mean ±SEM.
(§2) Anaesthetised SWISS mice underwent a craniotomy surgery to create a cranial window exposing parietal cortex. […]

For a further data set, the system named is SH-SY5Y cells. The data set is described as follows: Confocal microscopy of F—NpCul fluorescence in cells with copper loading or depletion (FIG. 4). It counts as cell-based, human. How it is done: SH-SY5Y cells were used, which are a human neuron-like cell line. SH-SY5Y cells were maintained at 37° C. in 5% CO2. Cells were cultured in Dulbecco's Modified Eagle's Medium (DMEM, Thermo Fisher Scientific) supplemented with 10% foetal calf serum (FCS, Thermo Fisher Scientific) and 2.5 mM L-glutamine (Sigma-Aldrich). Fluorobrite DMEM (FDMEM, Thermo Fisher Scientific) was supplemented with 10% FCS and 2.5 mM L-glutamine, unless otherwise stated.
For all imaging experiments, 1.5×10^5 cells were seeded into 35 mm glass bottom dishes (MatTek) and allowed to adhere overnight. 10 mM stock solutions of F—NpCul CuATSM were freshly prepared in DMSO. A 10 mM stock solution of BCS was freshly prepared in MilliQ water. For experiments cells were dosed with nothing (vehicle), 1 μL of 10 mM CuATSM stock in 1 mL DMEM or 10 μL of 10 mM BCS solution in 1 mL DMEM. […]
Images were obtained at 37° C. in a 5% CO2 atmosphere on an Olympus Fluo View FV3000 Confocal Laser Scanning Microscope, equipped with an Olympus 60× water objective (UPLSAPO60XW) and 405 and 640 nm lasers, unless otherwise stated. All samples were excited at 405 nm, and fluorescence emission collected from 510-610 nm. […] Data is presented as the mean fluorescence intensities of 40-50 cell clusters chosen as regions of interest from 10 images representative of each condition.

In another data set the test system is mice. Put plainly: Observation of signs of toxicity in the in vivo studies. Details: species or system mouse. The conditions noted are these: in vivo imaging studies, 4 mg/kg F—NpCul. As to the method: as §1, §2

Turning to `CCSCCN(CCSCC)Cc1cn(C(=O)OCCOCCNc2ccc3c4c(cccc24)C(=O)N(CCF)C3=O)cn1` [F—NpCul], in the data set with SWISS mice, the “reported copper levels within the vasculature, treated vs untreated mice” value is “equivalent”. The “fluorescent signal in brain tissue, CuATSM-treated vs untreated mice” value in the data set on SWISS mice (parietal cortex, excitation 920 nm, emission 504-577 nm) is reported as “significantly higher; also recorded: Higher fluorescent signal is observed in CuATSM-treated mice compared to control”. Also, in the data set on SH-SY5Y cells (10 μM F—NpCul, cells treated with vehicle, 10 μM CuATSM (copper-loading) or 100 μM BCS (copper-depleting) for 1 h, P<0.001 v vehicle), the “mean fluorescence intensity response to copper status” value is “sensitive to both an accumulation and a deficiency of copper”. In addition, the “bioavailability and cell uptake, reporting intracellular Cu(I) levels” value in the data set with SH-SY5Y cells (preliminary results) is “bioavailable and can be taken up by cells to report intracellular Cu(I) levels”. In the data set with mice, the “signs of toxicity following F—NpCul exposure” value is reported as “no signs of toxicity”.
